Reference: patent US9174964B2, “AMPK-activating piperidinyloxy-substituted 2,3-dihydro-1H-indene-1-amine compounds and pharmaceutical compositions including the same” (Rigel Pharmaceuticals, Inc., priority 2007, dated 2015)

target: AMPK; test: AMPK activation, enzyme-linked immunosorbent assay; assay type: biochemical; settings: Table 2, AMPK activation, ELISA

Structure (SMILES)	EC50 [nM]
O=C(NC1CCN(Cc2ccncc2)CC1)c1cc(OC2CCN(c3ccc(C(F)(F)F)cc3)CC2)ccn1 [Compound 13, N-(1-(pyridin-4-ylmethyl)piperidin-4-yl)-4-(1-(4-(trifluoromethyl)phenyl)piperidin-4-yloxy)picolinamide]	100 to 500
O=C(N[C@@H]1CCN(Cc2ccncc2)C1)c1ccc(OC2CCN(c3ccc(C(F)(F)F)cc3)CC2)cn1 [Compound 25, (R)-N-(1-(pyridin-4-ylmethyl)pyrrolidin-3-yl)-5-(1-(4-(trifluoromethyl)phenyl)piperidin-4-yloxy)picolinamide]	100 to 500
O=C(NC1CCN(Cc2c[nH]cn2)CC1)c1ccc(OC2CCN(c3ccc(C(F)(F)F)cc3)CC2)cn1 [Compound 48, N-(1-((1H-imidazol-4-yl)methyl)piperidin-4-yl)-5-(1-(4-(trifluoromethyl)phenyl)piperidin-4-yloxy)picolinamide]	1000 to 5000
CC(C)(C)OC(=O)N1CC[C@H](NC(=O)c2ccc(OC3CCN(c4ccc(C(F)(F)F)cc4)CC3)cn2)C1 [Compound 26, (S)-tert-butyl 3-(5-(1-(4-(trifluoromethyl)phenyl)piperidin-4-yloxy)picolinamido) pyrrolidine-1-carboxylate]	100 to 500

same assay, conditions: Table 4, AMPK activation, ELISA

Structure (SMILES)	EC50 [nM]
CN(C(=O)c1cc2cc(OC3CCN(c4ccc(C(F)(F)F)cc4)CC3)ccc2o1)C1CCN(Cc2ccncc2)CC1 [Compound 104, N-methyl-N-(1-(pyridin-4-ylmethyl)piperidin-4-yl)-5-(1-(4-(trifluoromethyl)phenyl)piperidin-4-yloxy)benzofuran-2-carboxamide]	100 to 500
CN(C(=O)c1cc2cc(OC3CCN(c4ccc(C(F)(F)F)cc4)CC3)ccc2o1)C1CCN(Cc2ccc(C#N)cc2)CC1 [Compound 107, N-(1-(4-cyanobenzyl)piperidin-4-yl)-N-methyl-5-(1-(4-(trifluoromethyl)phenyl)piperidin-4-yloxy)benzofuran-2-carboxamide]	< 100
N#Cc1ccc(CN2CCC(Oc3ccc4oc(C(=O)NC5CCN(Cc6ccccc6)CC5)cc4c3)CC2)cc1 [Compound 70, N-(1-benzylpiperidin-4-yl)-5-(1-(4-cyanobenzyl)piperidin-4-yloxy)benzofuran-2-carboxamide]	< 100
CN(C(=O)c1cc2cc(OC3CCN(c4ccc(C(F)(F)F)cc4)CC3)ccc2o1)C1CCN(Cc2cccc(C#N)c2)CC1 [Compound 110, N-(1-(3-cyanobenzyl)piperidin-4-yl)-N-methyl-5-(1-(4-(trifluoromethyl)phenyl)piperidin-4-yloxy)benzofuran-2-carboxamide]	< 100
CC(C)(C)OC(=O)N1CCC(NC(=O)c2cc3cc(OC4CCN(Cc5ccc(C#N)cc5)CC4)ccc3o2)CC1 [Compound 113, tert-butyl 4-(5-(1-(4-cyanobenzyl)piperidin-4-yloxy)benzofuran-2-carboxamido)piperidine-1-carboxylate]	100 to 500

same assay, conditions: Table 5, AMPK activation, ELISA

Structure (SMILES)	EC50 [nM]
N#Cc1cccc(CN2CCC(NC(=O)c3cc4ccc(OC5CCN(c6ccc(C(F)(F)F)cc6)CC5)cc4s3)CC2)c1 [Compound 145, N-(1-(3-cyanobenzyl)piperidin-4-yl)-6-(1-(4-(trifluoromethyl)phenyl)piperidin-4-yloxy)benzo[b]thiophene-2-carboxamide]	100 to 500
O=C(NC1CCN(Cc2cccnc2)CC1)c1sc2cc(OC3CCN(c4ccc(C(F)(F)F)cc4)CC3)ccc2c1Cl [Compound 152, 3-chloro-N-(1-(pyridin-3-ylmethyl)piperidin-4-yl)-6-(1-(4-(trifluoromethyl)phenyl)piperidin-4-yloxy)benzo[b]thiophene-2-carboxamide]	< 100

same assay, conditions: Table 6, AMPK activation, ELISA

Structure (SMILES)	EC50 [nM]
FC(F)(F)c1ccc(N2CCC(Oc3ccc4c(c3)CCC4NC3CCNCC3)CC2)cc1 (stereo not drawn) [Compound 157, N-(5-(1-(4-(trifluoromethyl)phenyl)piperidin-4-yloxy)-2,3-dihydro-1H-inden-1-yl)piperidin-4-amine]	> 100000
